Experiment: Influence of humidity: water content of crystals after standing at controlled relative humidity
Type: physicochemical
Conditions: 7 days, 25° C.; for Change of water content with rising relative humidity: 22 to 93% RH
Protocol: Test Example 1 Influence of Humidity After being allowed to stand the compounds of the present invention (T-614β, T-614γ and T-614 hydrate) and the compound disclosed as Example 5 in Japanese Patent Laid-Open No. 5-97840 (T-614α) under the relative humidity 22, 51, 75 and 93% RH for 7 days at 25° C., the water content of each crystal was measured.

CS(=O)(=O)Nc1cc2occ(NC=O)c(=O)c2cc1Oc1ccccc1 [T-614 hydrate, N-[3-(formylamino)-4-oxo-6-phenoxy-4H-chromen-7-yl]methanesulfonamide]
Change of water content with rising relative humidity: almost kept unchanged | Stability under a high humidity condition: stable under a high humidity condition | Water content (%) (relative humidity 22% RH): 4.09% | Water content (%) (relative humidity 51% RH): 4.15% | Water content (%) (relative humidity 75% RH): 4.08% | Water content (%) (relative humidity 93% RH): 4.03%

CS(=O)(=O)Nc1cc2occ(NC=O)c(=O)c2cc1Oc1ccccc1 [T-614β, N-[3-(formylamino)-4-oxo-6-phenoxy-4H-chromen-7-yl]methanesulfonamide]
Change of water content with rising relative humidity: almost kept unchanged | Stability under a high humidity condition: stable under a high humidity condition | Water content (%) (relative humidity 22% RH): 0.54% | Water content (%) (relative humidity 51% RH): 0.25% | Water content (%) (relative humidity 75% RH): 0.21% | Water content (%) (relative humidity 93% RH): 0.18%

CS(=O)(=O)Nc1cc2occ(NC=O)c(=O)c2cc1Oc1ccccc1 [T-614α, N-[3-(formylamino)-4-oxo-6-phenoxy-4H -chromen-7-yl]methanesulfonamide, reference compound]
Change of water content with rising relative humidity: increased with the rising of relative humidity | Water content (%) (relative humidity 22% RH): 0.30% | Water content (%) (relative humidity 51% RH): 1.29% | Water content (%) (relative humidity 75% RH): 2.88% | Water content (%) (relative humidity 93% RH): 3.62%

CS(=O)(=O)Nc1cc2occ(NC=O)c(=O)c2cc1Oc1ccccc1 [T-614γ, N-[3-(formylamino)-4-oxo-6-phenoxy-4H-chromen-7-yl]methanesulfonamide]
Change of water content with rising relative humidity: almost kept unchanged | Stability under a high humidity condition: stable under a high humidity condition | Water content (%) (relative humidity 22% RH): 0.28% | Water content (%) (relative humidity 51% RH): 0.33% | Water content (%) (relative humidity 75% RH): 0.52% | Water content (%) (relative humidity 93% RH): 0.65%
